What was measured:
[1] = refractive index (Na D-line) (dimensionless); xn = mol fraction of the nth substance listed; conditions: 101 kPa, Liquid, Standard Abbe refractometry
[2] = xn = mol fraction of the nth substance listed; conditions: 101 kPa, Liquid; for viscosity: Capillary tube (Ostwald / Ubbelohde) method; for mass density: Vibrating tube method

CCC(C)O (configuration not stated) [butan-2-ol] + CC#N
Conditions	mass density, [2] [kg/m3]	refractive index, [1]	viscosity, [2] [mPa·s]
293.15 K, x2 = 0	806.57	1.3966	3.912
293.15 K, x2 = 0.0844	804.53	1.3952	2.503
293.15 K, x2 = 0.1644	802.5	1.393	1.654
293.15 K, x2 = 0.2516	800.41	1.3899	1.376
293.15 K, x2 = 0.3369	798.33	1.386	1.089
293.15 K, x2 = 0.4444	795.68	1.3804	0.8564
293.15 K, x2 = 0.5382	793.35	1.3751	0.6953
293.15 K, x2 = 0.6425	790.7	1.3686	0.5565
293.15 K, x2 = 0.761	788.1	1.361	0.4636
293.15 K, x2 = 0.8715	785.92	1.3534	0.3984
293.15 K, x2 = 0.9588	783.48	1.3467	0.3663
298.15 K, x2 = 0	802.56	1.3946	3.132
298.15 K, x2 = 0.0844	800.28	1.3918	2.135
298.15 K, x2 = 0.1644	798.07	1.3893	1.574
298.15 K, x2 = 0.2516	795.79	1.3865	1.218
298.15 K, x2 = 0.3369	793.63	1.383	0.992
298.15 K, x2 = 0.4444	790.96	1.3782	0.7937
298.15 K, x2 = 0.5382	788.5	1.3734	0.6498
298.15 K, x2 = 0.6425	785.67	1.3674	0.518
298.15 K, x2 = 0.761	782.65	1.3597	0.4216
298.15 K, x2 = 0.8715	779.99	1.3518	0.3868
298.15 K, x2 = 0.9588	777.71	1.3448	0.3632
303.15 K, x2 = 0	798.26	1.3924	2.534
303.15 K, x2 = 0.0844	795.95	1.3902	1.794
303.15 K, x2 = 0.1644	793.74	1.3886	1.383
303.15 K, x2 = 0.2516	791.38	1.386	1.082
303.15 K, x2 = 0.3369	789.07	1.3829	0.8873
303.15 K, x2 = 0.4444	786.17	1.3779	0.7129
303.15 K, x2 = 0.5382	783.62	1.3722	0.5936
303.15 K, x2 = 0.6425	780.73	1.3656	0.4865
303.15 K, x2 = 0.761	777.45	1.3575	0.4019
303.15 K, x2 = 0.8715	774.43	1.3495	0.3612
303.15 K, x2 = 0.9588	772.05	1.3426	0.3414
308.15 K, x2 = 0	793.96	1.3905	2.172
308.15 K, x2 = 0.0844	791.55	1.3876	1.572
308.15 K, x2 = 0.1644	789.27	1.3853	1.213
308.15 K, x2 = 0.2516	786.77	1.3825	0.9642
308.15 K, x2 = 0.3369	784.37	1.3799	0.8021
308.15 K, x2 = 0.4444	781.35	1.3753	0.6524
308.15 K, x2 = 0.5382	778.69	1.3713	0.5479
308.15 K, x2 = 0.6425	775.68	1.3659	0.4533
308.15 K, x2 = 0.761	772.27	1.3592	0.379
308.15 K, x2 = 0.8715	768.99	1.351	0.3437
308.15 K, x2 = 0.9588	766.51	1.3423	0.3238

— the NIST ThermoML archive (doi:10.1016/j.tca.2009.06.015)
